According to US20240239775A1, “FXR REGULATOR, PREPARATION METHOD THEREFOR, PHARMACEUTICAL COMPOSITION THEREOF AND USE THEREOF” (QINGDAO RUIJI MEDICAL TECHNOLOGY CO., LTD., priority 2021, published 2024):

Columns and labels:
FXR = biological target: T1, FXR (Homo sapiens, UniProt Q96RI1); experiment: FXR antagonist screening by TR-FRET (LanthaScreen TR-FRET FXR co-activation assay kit); type: biochemical; details: Table 1.1, FXR antagonistic activity; TR-FRET with CDCA; geometric means of at least two independent runs
T1 construct: 5 μL of 20 nM FXR-LBD Complete Coregulator buffer G; purchased ThermoFisher PV4833
T1 sequence (Q96RI1 262-486 limits assumed): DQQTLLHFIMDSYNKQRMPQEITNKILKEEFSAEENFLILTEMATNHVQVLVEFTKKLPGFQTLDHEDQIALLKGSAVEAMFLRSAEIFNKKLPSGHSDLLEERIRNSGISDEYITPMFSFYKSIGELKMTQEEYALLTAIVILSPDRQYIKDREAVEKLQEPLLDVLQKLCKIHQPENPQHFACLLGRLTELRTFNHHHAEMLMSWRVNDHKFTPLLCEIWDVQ
Summary of the method: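 FXR-LBD (20 nM working solution) mixed with compound, CDCA (200 μM working solution) as agonist, Fluorescein-SRC2-2 and Tb-anti-GST antibody in Coregulator buffer G; 10 h at room temperature. Coactivator recruitment read by TR-FRET, triplicate wells.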

SMILES | melting point | IC50 (FXR)
Cc1c(C(=O)O)oc2ccc(S(=O)(=O)N(CCc3ccccc3)Cc3ccc(C(=O)O)cc3)cc12 [Example F27-S39, 3-methyl-5-(N-(4-carboxybenzyl)-N-phenethylsulfamoyl)benzofuran-2-carboxylic acid] | 254 to 255 °C | 50 to 100 µM
Cc1c(C(=O)O)oc2ccc(S(=O)(=O)N(CCc3ccccc3)Cc3ccc(F)cc3C(F)(F)F)cc12 [Example F27-S57, 3-methyl-5-(N-(2-(trifluoromethyl)-4-fluorobenzyl)-N-phenethylsulfamoyl)benzofuran-2-carboxylic acid] | 156 to 157 °C | 10 to 50 µM
Cc1c(C(=O)O)oc2ccc(S(=O)(=O)N(CCc3ccccc3)Cc3ccc(F)cc3Cl)cc12 [Example F27-S56, 3-methyl-5-(N-(2-chloro-4-fluorobenzyl)-N-phenethylsulfamoyl)benzofuran-2-carboxylic acid] | 145 to 146 °C | 10 to 50 µM
Cc1c(C(=O)O)oc2ccc(S(=O)(=O)N(CCc3ccccc3)Cc3ccc(F)cc3)cc12 [Example F27-S28, 3-methyl-5-(N-(4-fluorobenzyl)-N-phenethylsulfamoyl)benzofuran-2-carboxylic acid] | 188 to 189 °C | 10 to 50 µM
Cc1c(C(=O)O)oc2ccc(S(=O)(=O)N(CCc3ccccc3)Cc3ccccc3[N+](=O)[O-])cc12 [Example F27-S19, 3-methyl-5-(N-(2-nitrobenzyl)-N-phenethylsulfamoyl)benzofuran-2-carboxylic acid] | 180 to 181 °C | 10 to 50 µM
Cc1cccc(C)c1CN(CCc1ccccc1)S(=O)(=O)c1ccc2oc(C(=O)O)c(C)c2c1 [Example F27-S50, 3-methyl-5-(N-(2,6-dimethylbenzyl)-N-phenethylsulfamoyl)benzofuran-2-carboxylic acid] | 211 to 212 °C | 0.1 to 10 µM
Cc1c(C(=O)O)oc2ccc(S(=O)(=O)N(CCc3ccccc3)Cc3ccc(N4CCOCC4)cc3)cc12 [Example F27-S79] | > 380 °C (dec.) | 50 to 100 µM
Cc1cccc(CN(CCc2ccccc2)S(=O)(=O)c2ccc3oc(C(=O)O)c(C)c3c2)c1 [Example F27-S23, 3-methyl-5-(N-(3-methylbenzyl)-N-phenethylsulfamoyl)benzofuran-2-carboxylic acid] | > 380 °C (dec.) | 10 to 50 µM
Cc1c(C(=O)O)oc2ccc(S(=O)(=O)N(CCc3ccccc3)Cc3ccc(C(F)(F)F)cc3)cc12 [Example F27-S32, 3-methyl-5-(N-(4-(trifluoromethyl)benzyl)-N-phenethylsulfamoyl)benzofuran-2-carboxylic acid] | > 192 °C | 10 to 50 µM
CC(=O)N1CCN(c2ccccc2CN(CCc2ccccc2)S(=O)(=O)c2ccc3oc(C(=O)O)c(C)c3c2)CC1 [Example F27-S100, 3-methyl-5-(N-(2-(4-acetylpiperazin-1-yl)benzyl)-N-phenethylsulfamoyl)benzofuran-2-carboxylic acid] | 236 to 237 °C | 10 to 50 µM
CC(=O)N1CCN(c2ccc(N(CCc3ccccc3)S(=O)(=O)c3ccc4oc(C(=O)O)c(C)c4c3)cc2)CC1 [Example F27-S68, 3-methyl-5-(N-(4-(4-acetylpiperazin-1-yl)phenyl)-N-phenethylsulfamoyl)benzofuran-2-carboxylic acid] | 183 to 184 °C | 50 to 100 µM
Cc1c(C(=O)O)oc2ccc(S(=O)(=O)N(CCc3ccccc3)Cc3ccccc3F)cc12 [Example F27-S14, 3-methyl-5-(N-(2-fluorobenzyl)-N-phenethylsulfamoyl)benzofuran-2-carboxylic acid] | > 380 °C (dec.) | 0.1 to 10 µM
Cc1c(C(=O)O)oc2ccc(S(=O)(=O)N(CCc3ccccc3)c3ccc(N4CCN(C(=O)CC(C)(C)C)CC4)cc3)cc12 [Example F27-S66, 3-methyl-5-(N-(4-(4-(3,3-dimethylbutyryl)piperazin-1-yl)phenyl)-N-phenethylsulfamoyl)benzofuran-2-carboxylic acid] | > 380 °C (dec.) | 10 to 50 µM
Cc1c(C(=O)O)oc2ccc(S(=O)(=O)N(CCc3ccccc3)c3ccccc3N3CC[N+](C)(C)CC3)cc12 [Example F27-S90, 4-(2-((2-carboxy-3-methyl-N-phenethylbenzofuran)-5-sulfonylamino)phenyl)-1,1-dimethylpiperazin-1-ium] | 246 to 247 °C | 50 to 100 µM
Cc1c(C(=O)O)oc2ccc(S(=O)(=O)N(CCc3ccccc3)Cc3cccc(F)c3)cc12 [Example F27-S20, 3-methyl-5-(N-(3-fluorobenzyl)-N-phenethylsulfamoyl)benzofuran-2-carboxylic acid] | > 380 °C (dec.) | 10 to 50 µM
Cc1c(C(=O)O)oc2ccc(S(=O)(=O)N(CCc3ccccc3)Cc3cccc(N4CCN(C(=O)OC(C)(C)C)CC4)c3)cc12 [Example F27-S88, 3-methyl-5-(N-(3-(4-(tert-butoxycarbonyl)piperazin-1-yl)benzyl)-N-phenethylsulfamoyl)benzofuran-2-carboxylic acid] | 104 to 105 °C | 0.1 to 10 µM
Cc1c(C(=O)O)oc2ccc(S(=O)(=O)N(CCc3ccccc3)Cc3ccc4ccccc4c3)cc12 [Example F27-S45, 3-methyl-5-(N-(naphthalen-2-ylmethyl)-N-phenethylsulfamoyl)benzofuran-2-carboxylic acid] | > 380 °C (dec.) | 10 to 50 µM
Cc1c(C(=O)O)oc2ccc(S(=O)(=O)N(CCc3ccccc3)Cc3ccccc3N3CCN(C(=O)CC(C)(C)C)CC3)cc12 [Example F27-S103] | 190 to 191 °C | 10 to 50 µM
Cc1c(C(=O)O)oc2ccc(S(=O)(=O)N(CCc3ccccc3)Cc3ccc(C(N)=O)cc3)cc12 [Example F27-S33, 3-methyl-5-(N-(4-carbamoylbenzyl)-N-phenethylsulfamoyl)benzofuran-2-carboxylic acid] | > 380 °C (dec.) | 50 to 100 µM
Cc1c(C(=O)O)oc2ccc(S(=O)(=O)N(CCc3ccccc3)Cc3ccc(Cl)cc3Cl)cc12 [Example F27-S60, 3-methyl-5-(N-(2,4-dichlorobenzyl)-N-phenethylsulfamoyl)benzofuran-2-carboxylic acid] | 177 to 178 °C | 10 to 50 µM
Cc1c(C(=O)O)oc2ccc(S(=O)(=O)N(CCc3ccccc3)Cc3ccc(CC(=O)O)cc3)cc12 [Example F27-S41, 3-methyl-5-(N-(4-(carboxymethyl)benzyl)-N-phenethylsulfamoyl)benzofuran-2-carboxylic acid] | 182 to 183 °C | 50 to 100 µM
Cc1c(C(=O)O)oc2ccc(S(=O)(=O)N(CCc3ccccc3)Cc3ccccc3C(F)(F)F)cc12 [Example F27-S18, 3-methyl-5-(N-(2-trifluoromethylbenzyl)-N-phenethylsulfamoyl)benzofuran-2-carboxylic acid] | 138 to 139 °C | 10 to 50 µM
Cc1c(C(=O)O)oc2ccc(S(=O)(=O)N(CCc3ccccc3)Cc3ccc(C(F)(F)F)cc3C(F)(F)F)cc12 [Example F27-S58, 3-methyl-5-(N-(2,4-bis(trifluoromethyl)benzyl)-N-phenethylsulfamoyl)benzofuran-2-carboxylic acid] | 155 to 156 °C | 50 to 100 µM
Cc1c(C(=O)O)oc2ccc(S(=O)(=O)N(CCc3ccccc3)Cc3ccc(C(C)C)cc3)cc12 [Example F27-S36, 3-methyl-5-(N-(4-isopropylbenzyl)-N-phenethylsulfamoyl)benzofuran-2-carboxylic acid] | 206 to 207 °C | 10 to 50 µM
Cc1c(C(=O)O)oc2ccc(S(=O)(=O)N(CCc3ccccc3)Cc3ccc(F)cc3F)cc12 [Example F27-S51, 3-methyl-5-(N-(2,4-difluorobenzyl)-N-phenethylsulfamoyl)benzofuran-2-carboxylic acid] | 155 to 156 °C | 10 to 50 µM
Cc1ccc(CN(CCc2ccccc2)S(=O)(=O)c2ccc3oc(C(=O)O)c(C)c3c2)cc1 [Example F27-S31, 3-methyl-5-(N-(4-methylbenzyl)-N-phenethylsulfamoyl)benzofuran-2-carboxylic acid] | > 380 °C (dec.) | 10 to 50 µM
Cc1c(C(=O)O)oc2ccc(S(=O)(=O)N(CCc3ccccc3)Cc3c(F)cccc3C(F)(F)F)cc12 [Example F27-S48, 3-methyl-5-(N-(2-fluoro-6-(trifluoromethyl)benzyl)-N-phenethylsulfamoyl)benzofuran-2-carboxylic acid] | 99 to 100 °C | 10 to 50 µM
Cc1c(C(=O)O)oc2ccc(S(=O)(=O)N(CCc3ccccc3)Cc3ccc(Br)cc3F)cc12 [Example F27-S53, 3-methyl-5-(N-(2-fluoro-4-bromobenzyl)-N-phenethylsulfamoyl)benzofuran-2-carboxylic acid] | > 380 °C (dec.) | 10 to 50 µM
Cc1c(C(=O)O)oc2ccc(S(=O)(=O)N(CCc3ccccc3)c3ccc(N4CCN(C(=O)OC(C)(C)C)CC4)nc3)cc12 [Example F27-S75, 3-methyl-5-(N-(6-(4-(tert-butoxycarbonyl)piperazin-1-yl)pyridin-3-yl)-N-phenethylsulfamoyl)benzofuran-2-carboxylic acid] | > 380 °C (dec.) | 10 to 50 µM
CC(=O)c1ccc(CN(CCc2ccccc2)S(=O)(=O)c2ccc3oc(C(=O)O)c(C)c3c2)cc1 [Example F27-S38, 3-methyl-5-(N-(4-acetylbenzyl)-N-phenethylsulfamoyl)benzofuran-2-carboxylic acid] | > 380 °C (dec.) | 50 to 100 µM
